In patent US9079821B2, “Quinone based nitric oxide donating compounds” (NICOX S.A., priority 2011, dated 2015):

What was measured:
[1] = system: NADPH-induced lipidic peroxidation of membrane lipids (hepatic microsomal membranes); assay: In vitro antioxidant activity (TBARS test), Method A (ADP-FeCl3 and NADPH); type: biochemical, rat; conditions: inhibition of TBARS production after 30 min incubation, read-out: Antioxidant activity IC50 μM (CL 95%)
Description: The antioxidant properties of compounds (6) (disclosed in example 1) and compound (23) (disclosed in example 19) and reference antioxidant compounds were assessed after NADPH-induced lipidic peroxidation of membrane lipids in rat hepatocytes using the detection of 2-thiobarbituric acid reactive substances (TBARS) by visible spectroscopy.
Hepatic microsomal membranes from male Wistar rats (200-250 g) were prepared by differential centrifugation (8000 g, 20 min; 120000 g, 1 h) in a HEPES/sucrose buffer (10 mM, 250 mM, pH 7.4) and stored at −80° C. Incubation was performed at 37° C. in a Tris-HCl/KCl (100 mM/150 mM, pH 7.4) containing microsomal membranes (2 mg prot/mL), sodium ascorbate (100 μM), and DMSO solutions of the tested compounds. Lipid peroxidation was initiated by adding ADP-FeCl3 and NADPH (Method A) or 2.5 μM FeSO4 (Method B) (as described by Boschi D. et al., J. Med. Chem. 2006, 49:2886-2897). Aliquots were taken from the incubation mixture at 5, 15, and 30 min and treated with trichloroacetic acid (TCA) 10% w/v. Lipid peroxidation was assessed by spectrophotometric (543 nm) determination of the TBARS consisting mainly of malondialdehyde (MDA). TBARS concentrations (expressed in nmol/mg protein) were obtained by interpolation with a MDA standard curve. The antioxidant activity of tested compounds was evaluated as the percent inhibition of TBARS production with respect to control samples, using the values obtained after 30 min of incubation. IC50 values were calculated by nonlinear regression analysis.

[2] = system: mdx mice; assay: Mouse model of Duchenne Muscle Distrophy (whole body tension in mdx mice); type: in vivo; conditions: for WBT5: average of top 5 FPTs divided by body weight; for WBT10: average of top 10 FPTs divided by body weight
Description: The effects of the compound (6) on muscle function were assessed in mdx mice, which are genetically and biochemically homologous to human DMD. Animals of 4 weeks of age were treated for 3 months with the compound (6) at two different doses (30 and 100 mg/kg), which was incorporated into the diet. Control mdx and wild-type mice were fed the same diet without any drug. To determine if treatment with the compound would ameliorate muscle function in mdx mice, we evaluated the whole body tension which is a measure of the total muscle force. Indeed, this assay, well described in the Treat-NMD standard procedures for the preclinical studies in DMD, is used to determine the ability of mice to exert tension in a pulling maneuver that is elicited by stroking the tail. It is thought to reflect the maximal acute phasic force of the mouse can achieve to escape a potentially harmful event. Briefly, each mouse was placed at the entry of a polyvinyl chloride tube that had been lined interiorly with an aluminum screen, and the tail of the mouse was connected to a tension transducer. Forward pulling movements were elicited by a standardized stroke of the tail with serrated forceps and the corresponding forward pulling tensions (FPTs) were recorded using a Biopac recording system. Between 15 and 20 FPTs were generally recorded during each session. The whole body tension 5 (WBT5) and WBT10 were obtained by dividing the average of the top 5 or top 10 FPTs, respectively, by the body weight.
Table.1 Whole Body Tension (WBT) measured in wild-type and mdx control mice and in mdx mice treated with two different doses of NCX 1443 (30 and 100 mg/kg) incorporated in the diet. Data are presented as mean±standard deviation. For each group, n=8-10 mice. *p<0.05 vs mdx vehicle, ^###p<0.001 vs wild-type (wt) mice, 1-way ANOVA followed by Tuckey post-hoc test.

[3] = 30 mg/kg/day in the diet for 3 months
[4] = 100 mg/kg/day in the diet for 3 months

SMILES: COC1=C(OC)C(=O)C(CCCCCCCCCCO[N+](=O)[O-])=C(C)C1=O [Compound (6), 10-(4,5-dimethoxy-2-methyl-3,6-dioxocyclohexa-1,4-dienyl)decyl nitrate]
- IC50 [1]: 2 µM
- WBT5 [2, 3]: 3.6 ± 0.7^###
- WBT10 [2, 3]: 3.0 ± 0.7^###
- WBT5 [2, 4]: 4.1 ± 0.8^###*
- WBT10 [2, 4]: 3.4 ± 0.6^###*
- effect on muscle function, in words ([2]; 30 and 100 mg/kg in the diet for 3 months): showed a dose-response trend in improving muscle function reaching a significant effect at the dose of 100 mg/kg
